The values that follow come from publication PMC8341802 (RSC Chemical Biology, 2021).

One may read the IC50 as the concentration at which inhibition is half-maximal. Higher therefore signals weaker potency.

The test deals with APOBEC3A (A3A) (Homo sapiens, UniProt P31941). It counts as biochemical.
APOBEC3A (A3A), sequence (P31941 whole entry): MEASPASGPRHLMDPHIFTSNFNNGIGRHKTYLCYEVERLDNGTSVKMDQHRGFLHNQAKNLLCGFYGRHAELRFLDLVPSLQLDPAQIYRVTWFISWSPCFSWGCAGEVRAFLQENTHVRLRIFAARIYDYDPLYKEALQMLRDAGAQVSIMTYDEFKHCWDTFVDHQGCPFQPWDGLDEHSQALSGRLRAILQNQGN

`O=C(O)C1=CC(=C(c2ccc(O)c(C(=O)O)c2)c2ccc(O)c(C(=O)O)c2)C=CC1=O` [MN1, aurintricarboxylic acid] showed a concentration for half-maximal inhibition (IC50) of 40.5 µM.
